# Experimental data taken from patent US20150266857A1, “NOVEL 3-INDOL SUBSTITUTED DERIVATIVES, PHARMACEUTICAL COMPOSITIONS AND METHODS FOR USE” (iTeos Therapeutics, priority 2014, published 2015).
# Counter-ions that a name gives are not always drawn.
# Biological target: T1, human recombinant TDO2 enzyme (Homo sapiens, UniProt P48775)
# T1 construct: made in house
# Assay: Assay for TDO2 enzymatic activity determination
# Assay type: biochemical
# Settings: human recombinant TDO2, L-Trp 1 mM, kynurenine absorbance at 480 nm
# Procedure: To measure the TDO2 activity, the procedure described in Dolusic et al. J. Med. Chem.; 2011, 54, […] was adapted: the reaction mixture contained (final concentrations) potassium phosphate buffer (50 mM, pH 7.5), ascorbic acid (0.25 M), methylene blue (0.125 μM), catalase (40 units/mL, from bovine liver, Sigma), and human recombinant TDO2 enzyme (prepared as described in Dolusic et al. J. Med. Chem.; 2011, 54, 5320-5334; 0.9 μg) without or with the compounds of the present invention at the indicated concentrations (total volume 112.5 μL). The reaction was initiated by the addition of 37.5 μL of L-Trp (final concentration 1 mM) at room temperature. The reaction was conducted at room temperature during one hour and stopped by the addition of 30 μL of 30% (w/v) trichloroacetic acid.
# To convert N-formylkynurenine into kynurenine, the reaction mixture was incubated at 65° C. for 30 min. Then 150 μL of the reaction mixture was mixed with 120 μL of 2.5% (w/v) 4-(dimethylamino)-benzaldehyde in acetic acid and incubated for 5 min at room temperature. Kynurenine concentrations were determined by measuring the absorbance at 480 nm. A standard curve was made with pure kynurenine. The TDO activity was measured as described above using ten serial concentrations of the compounds of the present invention. Data were fitted using the Prism™ software (GraphPad Software, Inc.) using standard parameters.
# T1 sequence (P48775 whole entry): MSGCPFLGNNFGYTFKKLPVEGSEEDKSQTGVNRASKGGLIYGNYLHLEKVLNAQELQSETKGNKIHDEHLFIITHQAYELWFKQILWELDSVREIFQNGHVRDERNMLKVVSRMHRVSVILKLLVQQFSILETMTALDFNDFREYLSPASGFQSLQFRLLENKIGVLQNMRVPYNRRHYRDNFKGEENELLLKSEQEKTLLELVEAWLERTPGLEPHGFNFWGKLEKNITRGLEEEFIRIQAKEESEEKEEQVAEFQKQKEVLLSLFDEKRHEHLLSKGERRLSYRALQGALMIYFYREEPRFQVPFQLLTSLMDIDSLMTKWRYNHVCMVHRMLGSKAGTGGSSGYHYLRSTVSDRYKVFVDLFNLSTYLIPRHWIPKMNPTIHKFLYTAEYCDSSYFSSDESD
row,IC50,SMILES
1,946 nM,"NC(=O)Cn1ncc2ccc(-c3c[nH]c4cc(F)ccc34)cc21 [Compound 2, 2-(6-(6-fluoro-1H-indol-3-yl)-1H-indazol-1-yl)acetamide]"
2,2120 nM,"Fc1ccc2c(-c3ccc4cnn(CC5CCNCC5)c4c3)c[nH]c2c1 [Compound 3, 6-(6-fluoro-1H-indol-3-yl)-1-(piperidin-4-ylmethyl)-1H-indazole hydrochloride]"
3,3180 nM,"CC(=O)N1CCC(Cn2ncc3ccc(-c4c[nH]c5cc(F)ccc45)cc32)CC1 [Compound 4, 1-(4-((6-(6-fluoro-1H-indol-3-yl)-1H-indazol-1-yl)methyl)piperidin-1-yl)ethanone]"
4,1170 nM,"NC(=O)CCn1ncc2ccc(-c3c[nH]c4cc(F)ccc34)cc21 [Compound 5, 3-(6-(6-fluoro-1H-indol-3-yl)-1H-indazol-1-yl)propanamide]"
5,7530 nM,"Fc1ccc2c(-c3ccc4cnn(C5CCNCC5)c4c3)c[nH]c2c1 [Compound 6, 6-(6-fluoro-1H-indol-3-yl)-1-(piperidin-4-yl)-1H-indazole]"
6,13800 nM,"CC(=O)N1CCC(n2ncc3ccc(-c4c[nH]c5cc(F)ccc45)cc32)CC1 [Compound 7, 1-(4-(6-(6-fluoro-1H-indol-3-yl)-1H-indazol-1-yl)piperidin-1-yl)ethanone]"
7,609 nM,"Fc1ccc2c(-c3ccc4[nH]ncc4c3)c[nH]c2c1 [Compound 8, 5-(6-fluoro-1H-indol-3-yl)-1H-indazole]"
8,427 nM,"Fc1ccc2c(-c3ccc4c(cnn4CC4CCNCC4)c3)c[nH]c2c1 [Compound 10, 5-(6-fluoro-1H-indol-3-yl)-1-(piperidin-4-ylmethyl)-1H-indazole]"
9,680 nM,"CC(=O)N1CCC(Cn2ncc3cc(-c4c[nH]c5cc(F)ccc45)ccc32)CC1 [Compound 11, 1-(4-((5-(6-fluoro-1H-indol-3-yl)-1H-indazol-1-yl)methyl)piperidin-1-yl)ethanone]"
10,407 nM,"Fc1ccc2c(-c3ccc4c(cnn4C4CCNCC4)c3)c[nH]c2c1 [Compound 13, 5-(6-fluoro-1H-indol-3-yl)-1-(piperidin-4-yl)-1H-indazole]"
11,2220 nM,"CC(=O)N1CCC(n2ncc3cc(-c4c[nH]c5cc(F)ccc45)ccc32)CC1 [Compound 14, 1-(4-(5-(6-fluoro-1H-indol-3-yl)-1H-indazol-1-yl)piperidin-1-yl)ethanone]"
12,1160 nM,"NC(=O)Cn1cc2ccc(-c3c[nH]c4cc(F)ccc34)cc2n1 [Compound 15, 2-(6-(6-fluoro-1H-indol-3-yl)-2H-indazol-2-yl)acetamide]"
13,1990 nM,"CC(=O)N1CCC(Cn2cc3ccc(-c4c[nH]c5cc(F)ccc45)cc3n2)CC1 [Compound 16, 1-(4-((6-(6-fluoro-1H-indol-3-yl)-2H-indazol-2-yl)methyl)piperidin-1-yl)ethanone]"
14,935 nM,"NC(=O)CCn1cc2ccc(-c3c[nH]c4cc(F)ccc34)cc2n1 [Compound 17, 3-(6-(6-fluoro-1H-indol-3-yl)-2H-indazol-2-yl)propanamide]"
15,948 nM,"Fc1ccc2c(-c3ccc4cn(C5CCNCC5)nc4c3)c[nH]c2c1 [Compound 18, 6-(6-fluoro-1H-indol-3-yl)-2-(piperidin-4-yl)-2H-indazole]"
16,2190 nM,"CC(=O)N1CCC(n2cc3ccc(-c4c[nH]c5cc(F)ccc45)cc3n2)CC1 [Compound 19, 1-(4-(6-(6-fluoro-1H-indol-3-yl)-2H-indazol-2-yl)piperidin-1-yl)ethanone]"

# Biological target: T2, human glioblastoma A172 cells, naturally expressing hTDO2 (Homo sapiens, UniProt P48775)
# T2 construct: human glioblastoma A172 cells, naturally expressing hTDO2; endogenous in cells; host or cells: human glioblastoma A172 cells (ATCC CRL-1620)
# Assay: Cellular assay for TDO2 activity, A172 cells
# Assay type: cell-based
# Settings: overnight incubation, kynurenine in supernatant
# Procedure: The compounds of formula I inhibit the activity of human TDO2 in cells that constitutively express TDO2, such as A172 cells. A172 is a cell line derived from human brain glioblastoma cells. The cells are available from the American Type Culture Collection (ATCC®) as CRL-1620™
# The assay (adapted from Pilotte L et al., Proc Natl Acad Sci USA, 2012, 109(7), 2497-502) was performed in 96-well flat bottom plates seeded with human glioblastoma A172 cells, naturally expressing hTDO2 (prepared as described in Tilman et al., Mol Cancer, 2007, 17(6), 80), at a concentration of 1.25×10^4 cells/well in a final volume of 200 μL. To determine TDO, the cells were incubated overnight at 37° C. at 5% CO2 in IMDM (Invitrogen) supplemented with 2% FBS and 2% penicillin/streptomycin in the presence of the compounds of the present invention, at different concentrations.
# The plates were then centrifuged 5 min at 1000 rpm, and 100 μL of the supernatant were collected in a conical plate, 30 uL of TCA 30% were added and a further centrifugated at 3000×g for 10 minutes. 100 μL of the supernatant were collected in a flat bottomed plate and 100 μL of 2% (w/v) 4-(dimethylamino)-benzaldehyde in acetic acid and incubated for 5 min at room temperature. Kynurenine concentrations were determined by measuring the absorbance at 480 nm. A standard curve was made with pure kynurenine. The TDO activity was measured as described above using ten serial concentrations of the compounds of the present invention. Data were fitted using the Prism™ software (GraphPad Software, Inc.) using standard parameters.
# T2 sequence (P48775 whole entry): as above
row,SMILES,IC50
1,"Clc1ccc2[nH]cc(-c3ccc4ocnc4c3)c2c1 [Compound 121, 5-(5-chloro-1H-indol-3-yl)benzo[d]oxazole]",1770 nM
2,"CN1CCC(Cc2nc3ccc(-c4c[nH]c5cc(F)ccc45)cc3o2)CC1 [Compound 125, 6-(6-fluoro-1H-indol-3-yl)-2-((1-methylpiperidin-4-yl)methyl)benzo[d]oxazole]",148 nM
3,"CS(=O)(=O)NC1CCN(CCS(=O)(=O)NCc2nc3ccc(-c4c[nH]c5cc(F)ccc45)cc3o2)CC1 [Compound 126, N-((6-(6-fluoro-1H-indol-3-yl)benzo[d]oxazol-2-yl)methyl)-2-(4-(methylsulfonamido)piperidin-1-yl)ethanesulfonamide]",826 nM

# Further lines, results first:
row,IC50,SMILES
1,3780 nM,"CS(=O)(=O)NCc1nc2ccc(-c3c[nH]c4cc(Cl)ccc34)cc2o1 [Compound 127, N-((6-(6-chloro-1H-indol-3-yl)benzo[d]oxazol-2-yl)methyl)methanesulfonamide]"
2,225 nM,"O=C1NC(=O)C(Cc2nc3ccc(-c4c[nH]c5cc(F)ccc45)cc3o2)N1 (stereo not drawn) [Compound 129, 5-((6-(6-fluoro-1H-indol-3-yl)benzo[d]oxazol-2-yl)methyl)imidazolidine-2,4-dione]"
3,2380 nM,"NC(=O)Cn1c(=O)oc2cc(-c3c[nH]c4ccc(F)cc34)ccc21 [Compound 131, 2-(6-(5-fluoro-1H-indol-3-yl)-2-oxobenzo[d]oxazol-3(2H)-yl)acetamide]"
4,197 nM,"O=C1NC(=O)c2cc(-c3c[nH]c4cc(F)ccc34)ccc21 [Compound 132, 5-(6-fluoro-1H-indol-3-yl)isoindoline-1,3-dione]"
5,292 nM,"Fc1ccc2c(-c3ccc4c(c3)CNC4)c[nH]c2c1 [Compound 133, 6-fluoro-3-(isoindolin-5-yl)-1H-indole]"
6,771 nM,O=S1(=O)NCc2ccc(-c3c[nH]c4cc(F)ccc34)cc21 [Compound 134]
7,74 nM,"O=S1(=O)NCc2cc(-c3c[nH]c4cc(F)ccc34)ccc21 [Compound 135, 5-(6-fluoro-1H-indol-3-yl)-2,3-dihydrobenzo[d]isothiazole 1,1-dioxide]"
8,320 nM,"O=c1oc2cc(-c3c[nH]c4cc(F)ccc34)ccc2n1C1CCNCC1 [Compound 136, 6-(6-fluoro-1H-indol-3-yl)-3-(piperidin-4-yl)benzo[d]oxazol-2(3H)-one]"
9,30700 nM,"Cc1nc2cc(CO)c(-c3c[nH]c4cc(F)ccc34)cc2o1 [Compound 137, (6-(6-fluoro-1H-indol-3-yl)-2-methylbenzo[d]oxazol-5-yl)methanol]"
10,3680 nM,"CN1C(=O)c2cc(-c3c[nH]c4cc(F)ccc34)ccc2S1(=O)=O [Compound 138, 5-(6-fluoro-H-indol-3-yl)-2-methylbenzo[d]isothiazol-3(2H)-one 1,1-dioxide]"
11,383 nM,"C[C@@H]1CN(CCc2nc3ccc(-c4c[nH]c5cc(F)ccc45)cc3o2)C[C@H](C)N1 [Compound 139, 2-(2-(cis-3,5-dimethylpiperazin-1-yl)ethyl)-6-(6-fluoro-1H-indol-3-yl)benzo[d]oxazole]"
12,447 nM,"OC1CCN(CCc2nc3ccc(-c4c[nH]c5cc(F)ccc45)cc3o2)CC1 [Compound 140, 1-(2-(6-(6-fluoro-1H-indol-3-yl)benzo[d]oxazol-2-yl)ethyl)piperidin-4-ol]"
13,480 nM,"C[C@@H]1CN(CCc2nc3ccc(-c4c[nH]c5cc(F)ccc45)cc3o2)C[C@@H](C)N1 [Compound 142, (+)-2-(2-((3R,5R)-3,5-dimethylpiperazin-1-yl)ethyl)-6-(6-fluoro-1H-indol-3-yl)benzo[d]oxazole]"
14,610 nM,"Fc1ccc2c(-c3ccc4nc(CCN5CC6(CNC6)C5)oc4c3)c[nH]c2c1 [Compound 143, 2-(2-(2,6-diazaspiro[3.3]heptan-2-yl)ethyl)-6-(6-fluoro-1H-indol-3-yl)benzo[d]oxazole]"
15,460 nM,"C[C@H]1CN(CCc2nc3ccc(-c4c[nH]c5cc(F)ccc45)cc3o2)C[C@H](C)N1 [Compound 144, (−)-2-(2-((3S,5S)-3,5-dimethylpiperazin-1-yl)ethyl)-6-(6-fluoro-1H-indol-3-yl)benzo[d]oxazole]"
16,26000 nM,"O=C(O)C1CN(CCc2nc3ccc(-c4c[nH]c5cc(F)ccc45)cc3o2)CCN1 (stereo not drawn) [Compound 145, 4-(2-(6-(6-fluoro-1H-indol-3-yl)benzo[d]oxazol-2-yl)ethyl)piperazine-2-carboxylic acid]"
17,520 nM,"Fc1ccc2c(-c3ccc4ccoc4c3)c[nH]c2c1 [Compound 146, 3-(benzofuran-6-yl)-6-fluoro-1H-indole]"
